In PubChem BioAssay AID256 (DTP/NCI, 2004):
Values joined by “and” are separate entries in the source; they are usually repeats but may differ in a detail not shown here. Equal values may be shown once. Toxic doses and inconclusive results are not listed.

Tested on: CD2F1 mice, L1210 leukemia ip, survival T/C
Assay: NCI In Vivo Anticancer Drug Screen. Data for tumor model L1210 Leukemia (intraperitoneal) in CD2F1 (CDF1) mice
Conditions: endpoint: mean survival time, higher = longer survival
In short: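 Each value reflects a quotient of treated over vehicle control outcomes in mice with a transplanted tumor.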

[1] = dose: 100.0 mg/kg/injection, schedule: Q01DX009 (ip), vehicle: saline with Tween-80
[2] = dose: 200.0 mg/kg/injection, schedule: Q01DX009 (ip), vehicle: saline with Tween-80
[3] = dose: 400.0 mg/kg/injection, schedule: Q01DX009 (ip), vehicle: saline with Tween-80
[4] = dose: 100.0 mg/kg/injection, schedule: Q04DX003 (ip), vehicle: saline with Tween-80
[5] = dose: 200.0 mg/kg/injection, schedule: Q04DX003 (ip), vehicle: saline with Tween-80
[6] = dose: 25.0 mg/kg/injection, schedule: Q01DX009 (ip), vehicle: saline
[7] = dose: 50.0 mg/kg/injection, schedule: Q01DX009 (ip), vehicle: saline
[8] = dose: 100.0 mg/kg/injection, schedule: Q01DX009 (ip), vehicle: saline

## c1ccc(C2SCCCS2)cc1
dose: 100.0 mg/kg/injection, schedule: Q04DX003 (ip), vehicle: other
  T/C: 101 % of control
dose: 200.0 mg/kg/injection, schedule: Q04DX003 (ip), vehicle: other
  T/C: 97 % of control
dose: 400.0 mg/kg/injection, schedule: Q04DX003 (ip), vehicle: other
  T/C: 101 % of control

## Cc1c[nH]c(=O)c[n+]1[O-]
[1]
  T/C: 100 % of control
[2]
  T/C: 100 % of control
[3]
  T/C: 97 % of control

## C=CCC1CN(CCC(O)c2ccc(F)cc2)CCC1(OC(=O)CC)c1ccccc1 (configuration not stated)
dose: 100.0 mg/kg/injection, schedule: Q04DX002 (ip), vehicle: Klucel (hydroxypropylcellulose) (HPC)
  T/C: 93 % of control
dose: 200.0 mg/kg/injection, schedule: Q04DX002 (ip), vehicle: Klucel (hydroxypropylcellulose) (HPC)
  T/C: 101 % of control
dose: 400.0 mg/kg/injection, schedule: Q04DX002 (ip), vehicle: Klucel (hydroxypropylcellulose) (HPC)
  T/C: 104 % of control

## CCNc1ncnc2nncnc12
dose: 100.0 mg/kg/injection, schedule: Q01DX001 (ip), vehicle: carboxymethylcellulose (CMC)
  T/C: 98 % of control

## OCC1OC(c2nnc3c4ccccc4cnn23)C(O)C1O (configuration not stated)
dose: 10.94 mg/kg/injection, schedule: Q01DX005 (ip), vehicle: water
  T/C: 100 % of control
dose: 11.25 mg/kg/injection, schedule: Q01DX005 (ip), vehicle: water
  T/C: 96 % of control
dose: 21.88 mg/kg/injection, schedule: Q01DX005 (ip), vehicle: water
  T/C: 94 % of control
dose: 22.5 mg/kg/injection, schedule: Q01DX005 (ip), vehicle: water
  T/C: 94 % of control
dose: 43.75 mg/kg/injection, schedule: Q01DX005 (ip), vehicle: water
  T/C: 93 % of control
dose: 45.0 mg/kg/injection, schedule: Q01DX005 (ip), vehicle: water
  T/C: 90 % of control
dose: 87.5 mg/kg/injection, schedule: Q01DX005 (ip), vehicle: water
  T/C: 94 % of control
dose: 90.0 mg/kg/injection, schedule: Q01DX005 (ip), vehicle: water
  T/C: 96 % of control
dose: 175.0 mg/kg/injection, schedule: Q01DX005 (ip), vehicle: water
  T/C: 93 % of control
dose: 180.0 mg/kg/injection, schedule: Q01DX005 (ip), vehicle: water
  T/C: 94 % of control

## Nc1ccc(CCCCc2ccc(Cl)c(S(=O)(=O)F)c2)c(Cl)c1
[1]
  T/C: 95 % of control
[4]
  T/C: 95 % of control
[2]
  T/C: 92 % of control
[5]
  T/C: 101 % of control
[3]
  T/C: 94 % of control
dose: 400.0 mg/kg/injection, schedule: Q04DX003 (ip), vehicle: saline with Tween-80
  T/C: 94 % of control

## CCc1c(CNc2ccc(C(=O)NC(CC(=O)O)C(=O)O)cc2)ccc2nc(N)nc(N)c12 (configuration not stated)
dose: 0.25 mg/kg/injection, schedule: Q01DX001 (ip), vehicle: saline
  T/C: 105 % of control
dose: 0.5 mg/kg/injection, schedule: Q01DX001 (ip), vehicle: saline
  T/C: 114 % of control
dose: 1.0 mg/kg/injection, schedule: Q01DX001 (ip), vehicle: saline
  T/C: 119 % of control
dose: 4.0 mg/kg/injection, schedule: Q01DX001 (ip), vehicle: saline
  T/C: 163 % of control

## O=[N+]([O-])c1[nH]c(Br)nc1Br
[4]
  T/C: 95 % of control
[5]
  T/C: 100 % of control

## CC(=N\O)/C(C)=N/O.CC(=N\O)/C(C)=N/O.O.[CH3-].[Co]
dose: 25.0 mg/kg/injection, schedule: Q04DX003 (ip), vehicle: Klucel (hydroxypropylcellulose) (HPC)
  T/C: 95 % of control
dose: 50.0 mg/kg/injection, schedule: Q04DX003 (ip), vehicle: Klucel (hydroxypropylcellulose) (HPC)
  T/C: 95 % of control

## C#CCCO
[6]
  T/C: 113 % of control
[7]
  T/C: 98 % of control
[8]
  T/C: 105 % of control

## O=C1CN(CN2CCOCC2)C(=O)CN1CN1CCOCC1
dose: 12.5 mg/kg/injection, schedule: Q01DX009 (ip), vehicle: saline
  T/C: 98 % of control and 101 % of control
[6]
  T/C: 96 % of control and 98 % of control
[7]
  T/C: 90 % of control and 102 % of control
[8]
  T/C: 102 % of control and 108 % of control
dose: 200.0 mg/kg/injection, schedule: Q01DX009 (ip), vehicle: saline
  T/C: 106 % of control and 111 % of control
dose: 400.0 mg/kg/injection, schedule: Q01DX009 (ip), vehicle: saline
  T/C: 93 % of control and 107 % of control

## Nc1ncnc2c1ccn2C1OC(CO)C2[O][Sn]([c]3ccccc3)([c]3ccccc3)[O]C21 (configuration not stated)
dose: 0.78 mg/kg/injection, schedule: Q01DX005 (ip), vehicle: other
  T/C: 110 % of control
dose: 1.56 mg/kg/injection, schedule: Q01DX005 (ip), vehicle: other
  T/C: 113 % of control
dose: 3.13 mg/kg/injection, schedule: Q01DX005 (ip), vehicle: other
  T/C: 111 % of control
dose: 6.25 mg/kg/injection, schedule: Q01DX005 (ip), vehicle: other
  T/C: 90 % of control
